# Measurements reported in US20260166039A1 (SCHRÖDINGER, INC., priority 2022, published 2026).
# pIC50: −log10 of the molar value. Where two headings read alike, the source gives them in different places.
# Key:
# [1] = system: phosphorylation of Cdc2 Y15 (Wee1 substrate) in A427 cells; assay: Phosphorylated Cdc2 MSD Electrochemiluminescence Assay; format: cell-based; details: Homo sapiens
# How it was run: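 Read-out: percent residual phospho-Cdc2 Y15 relative to DMSO and positive-control Wee1 inhibitor, measured by MSD electrochemiluminescence capture/detection antibody assay in cell lysates. A427 cells received duplicate 3-fold compound dilution series 20 h post-seeding, with 6 h total incubation at 37 °C.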
# Wee1 kinase domain = target: T1, Wee1 kinase domain (Homo sapiens, UniProt P30291); assay: Wee1 Kinase Biochemical Assay (ADP-Glo); details: 15 uM ATP
# T1 construct: Wee1 kinase domain was purchased from Carna (catalog #05-177); purchased Carna 05-177
# How it was run: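 Compounds tested against 1 nM Wee1 kinase domain in Tris buffer containing 20 mM MgCl2, BSA and 2 mM DTT, with 15 uM ATP and poly(Lys,Tyr) substrate for 4 h at 25 °C. Luminescent ADP detection gave percent inhibition, normalized to DMSO and saturating inhibitor.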
# [2] = A-427, class symbols, read-out: A427 pCDC2 MSD IC50
# [3] = class symbols, 1 nM Wee1 enzyme, 4 hours at 25° C.
# T1 sequence (P30291 299-569 limits assumed): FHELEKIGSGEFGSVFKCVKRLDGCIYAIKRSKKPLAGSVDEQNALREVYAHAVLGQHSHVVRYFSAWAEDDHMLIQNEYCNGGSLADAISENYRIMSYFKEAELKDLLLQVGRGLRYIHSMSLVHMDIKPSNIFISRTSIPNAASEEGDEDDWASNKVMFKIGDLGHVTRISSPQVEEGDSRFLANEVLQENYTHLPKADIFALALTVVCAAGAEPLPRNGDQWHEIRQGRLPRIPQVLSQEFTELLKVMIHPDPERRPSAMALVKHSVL
"pIC50 [1, 2]",pIC50 (Wee1 kinase domain; [3]),"pIC50 ([1]; A-427, pCDC2 MSD)","pIC50 (Wee1 kinase domain; Wee1 kinase domain, ADP-Glo)",Structure (SMILES),also measured
> 7.00,> 8.00,,,"CN[C@H]1CCc2ccc(N3c4nc(Nc5ccc(N6CCOCC6)cc5)ncc4C4(C)COC(C)(C)CC34)nc21 (stereo in doubt) [Example 551, (4bR,8aR)-4b,7,7-trimethyl-9-((S)-7-(methylamino)-6,7-dihydro-5H-cyclopenta[b]pyridin-2-yl)-N-(4-morpholinophenyl)-4b,5,7,8,8a,9-hexahydropyrano[3′,4′:4,5]pyrrolo[2,3-d]pyrimidin-2-amine]",
6.00 to 7.00,> 8.00,,,"C[C@H]1CCC(=O)N1c1cccc(N2c3nc(Nc4cnn(C5CCN(C)CC5)c4)ncc3C3(C)COC(C)(C)CC23)n1 (stereo in doubt) [Example 556, (S)-5-methyl-1-(6-((4bR,8aR)-4b,7,7-trimethyl-2-((1-(1-methylpiperidin-4-yl)-1H-pyrazol-4-yl)amino)-4b,7,8,8a-tetrahydropyrano[3′,4′:4,5]pyrrolo[2,3-d]pyrimidin-9(5H)-yl)pyridin-2-yl)pyrrolidin-2-one]",
6.00 to 7.00,> 8.00,,,"CN1C[C@H]2C[C@@H]1CN2c1ccc(Nc2ncc3c(n2)N(c2cccc(C4(O)CC4)n2)C2CC(C)(C)OCC32C)cc1 (stereo in doubt) [Example 646, 1-(6-((4bR,8aR)-4b,7,7-trimethyl-2-((4-((1R,4R)-5-methyl-2,5-diazabicyclo[2.2.1]heptan-2-yl)phenyl)amino)-4b,7,8,8a-tetrahydropyrano[3′,4′:4,5]pyrrolo[2,3-d]pyrimidin-9(5H)-yl)pyridin-2-yl)cyclopropan-1-ol]",
,,,,"CN1CC2CC1CN2c1ccc(Nc2ncc3c(n2)N(c2cccc(C(F)F)n2)[C@@H]2CC(C)(C)OC[C@]32C)cc1 (stereo in doubt) [Example 814, (4bR,8aR)-9-(6-(difluoromethyl)pyridin-2-yl)-4b,7,7-trimethyl-N-(4-((1R,4R)-5-methyl-2,5-diazabicyclo[2.2.1]heptan-2-yl)phenyl)-4b,5,7,8,8a,9-hexahydropyrano[3′,4′:4,5]pyrrolo[2,3-d]pyrimidin-2-amine]","pIC50 ([1]; A-427, read-out: A427 pCDC2 MSD IC50): 6.00 to 7.00; pIC50 (Wee1 kinase domain; 1 nM Wee1 enzyme, 4 hours at 25° C): > 8.00"
,,6.00 to 7.00,> 8.00,"CNC(=O)c1ccc(Nc2ncc3c(n2)N(c2cccc(N=S(C)(C)=O)n2)[C@@H]2CC(C)(C)OC[C@]32C)cc1F [Example 119, 4-(((4bR,8aR)-9-(6-((dimethyl(oxo)-16-sulfaneylidene)amino)pyridin-2-yl)-4b,7,7-trimethyl-4b,5,7,8,8a,9-hexahydropyrano[3′,4′:4,5]pyrrolo[2,3-d]pyrimidin-2-yl)amino)-2-fluoro-N-methylbenzamide]",
,,6.00 to 7.00,> 8.00,"CN1CCC(n2ccc(Nc3ncc4c(n3)N(c3cccc(N=S(C)(C)=O)n3)[C@@H]3CC(C)(C)OC[C@]43C)cc2=O)CC1 [Example 152, 4-(((4bR,8aR)-9-(6-((dimethyl(oxo)-16-sulfaneylidene)amino)pyridin-2-yl)-4b,7,7-trimethyl-4b,5,7,8,8a,9-hexahydropyrano[3′,4′:4,5]pyrrolo[2,3-d]pyrimidin-2-yl)amino)-1-(1-methylpiperidin-4-yl)pyridin-2(1H)-one]",
,,6.00 to 7.00,> 8.00,"CN1CCC(n2cc(Nc3ncc4c(n3)N(c3cccc(N=S(C)(C)=O)n3)[C@@H]3CC(C)(C)OC[C@]43C)cn2)C1 (stereo partly drawn) [Example 196, dimethyl((6-((4bR,8aR)-4b,7,7-trimethyl-2-((1-((R)-1-methylpyrrolidin-3-yl)-1H-pyrazol-4-yl)amino)-4b,7,8,8a-tetrahydropyrano[3′,4′:4,5]pyrrolo[2,3-d]pyrimidin-9(5H)-yl)pyridin-2-yl)imino)-16-sulfanone]",
,,6.00 to 7.00,> 8.00,"CN1CC2(C1)CN(c1ccc(Nc3ncc4c(n3)N(c3cccc(N=S(C)(C)=O)n3)[C@@H]3CC(C)(C)OC[C@]43C)cc1)C2 [Example 219, dimethyl((6-((4bR,8aR)-4b,7,7-trimethyl-2-((4-(6-methyl-2,6-diazaspiro[3.3]heptan-2-yl)phenyl)amino)-4b,7,8,8a-tetrahydropyrano[3′,4′:4,5]pyrrolo[2,3-d]pyrimidin-9(5H)-yl)pyridin-2-yl)imino)-l6-sulfanone]",
,,6.00 to 7.00,> 8.00,C[C@H]1COC(=O)N1c1cccc(N2c3nc(Nc4ccc(N5CCN(C)CC5)nn4)ncc3[C@@]3(C)COC(C)(C)C[C@@H]23)n1 [Example 249],
5.00 to 6.00,> 8.00,,,CN(C)Cc1cccc(N2c3nc(Nc4ccc(C(C)(C)C(=O)O)cc4)ncc3[C@@]3(C)COC(C)(C)C[C@@H]23)n1 [Example 611],
> 7.00,> 8.00,,,"CC1(C)C[C@H]2N(c3cccc(N4CCOC4=O)n3)c3nc(Nc4ccc(O[C@H]5CCNC5)cc4)ncc3[C@@]2(C)CO1 [Example 613, 3-(6-((4bR,8aR)-4b,7,7-trimethyl-2-((4-(((S)-pyrrolidin-3-yl)oxy)phenyl)amino)-4b,7,8,8a-tetrahydropyrano[3′,4′:4,5]pyrrolo[2,3-d]pyrimidin-9(5H)-yl)pyridin-2-yl)oxazolidin-2-one]",
> 7.00,> 8.00,,,"CN1CC[C@H](Oc2ccc(Nc3ncc4c(n3)N(c3cccc(N5CCOC5=O)n3)[C@@H]3CC(C)(C)OC[C@]43C)cc2)C1 [Example 615, 3-(6-((4bR,8aR)-4b,7,7-trimethyl-2-((4-(((S)-1-methylpyrrolidin-3-yl)oxy)phenyl)amino)-4b,7,8,8a-tetrahydropyrano[3′,4′:4,5]pyrrolo[2,3-d]pyrimidin-9(5H)-yl)pyridin-2-yl)oxazolidin-2-one]",
6.00 to 7.00,> 8.00,,,"CC1(C)C[C@H]2N(c3cccc(N4CCCC4=O)n3)c3nc(Nc4ccc(O[C@@H]5CCNC5)cc4)ncc3[C@@]2(C)CO1 [Example 616, 1-(6-((4bR,8aR)-4b,7,7-trimethyl-2-((4-(((R)-pyrrolidin-3-yl)oxy)phenyl)amino)-4b,7,8,8a-tetrahydropyrano[3′,4′:4,5]pyrrolo[2,3-d]pyrimidin-9(5H)-yl)pyridin-2-yl)pyrrolidin-2-one]",
> 7.00,> 8.00,,,"CN1CC[C@H](Oc2ccc(Nc3ncc4c(n3)N(c3cccc(N5CCCC5=O)n3)[C@@H]3CC(C)(C)OC[C@]43C)cc2)C1 [Example 618, 1-(6-((4bR,8aR)-4b,7,7-trimethyl-2-((4-(((S)-1-methylpyrrolidin-3-yl)oxy)phenyl)amino)-4b,7,8,8a-tetrahydropyrano[3′,4′:4,5]pyrrolo[2,3-d]pyrimidin-9(5H)-yl)pyridin-2-yl)pyrrolidin-2-one]",
> 7.00,> 8.00,,,"CC1(C)C[C@H]2N(c3cccc(N4CCCC4=O)n3)c3nc(Nc4ccc(O[C@H]5CCNC5)cc4)ncc3[C@@]2(C)CO1 [Example 620, 1-(6-((4bR,8aR)-4b,7,7-trimethyl-2-((4-(((S)-pyrrolidin-3-yl)oxy)phenyl)amino)-4b,7,8,8a-tetrahydropyrano[3′,4′:4,5]pyrrolo[2,3-d]pyrimidin-9(5H)-yl)pyridin-2-yl)pyrrolidin-2-one]",

Structure (SMILES),"pIC50 [1, 2]",pIC50 (Wee1 kinase domain; [3]),"pIC50 ([1]; A-427, pCDC2 MSD)","pIC50 (Wee1 kinase domain; Wee1 kinase domain, ADP-Glo)",also measured
"CN1CCN(c2ccc(Nc3ncc4c(n3)N(c3cccc(N=S(C)(C)=O)n3)[C@@H]3CC(C)(C)OC[C@]43C)cc2)CC1 [Example 100, Dimethyl((6-((4bR,8aR)-4b,7,7-trimethyl-2-((4-(4-methylpiperazin-1-yl)phenyl)amino)-4b,7,8,8a-tetrahydropyrano[3′,4′:4,5]pyrrolo[2,3-d]pyrimidin-9(5H)-yl)pyridin-2-yl)imino)-l6-sulfanone]",,,> 7.00,> 8.00,
